This is an account of results in US20120202822A1, “COMBINATION” (priority 2009, published 2012).

Broadly, the IC50 is the concentration at which inhibition is half-maximal.

Holding throughout (assay): Cell Growth Inhibition Assay (Cell Titer Glo, 3 days)
Holding throughout (format): cell-based

The test system of test [1] is 12R5-1. The settings on record: Homo sapiens, 72 h, 12R5-1 (Compound A resistant clone), read-out: IC50, Single Agent (mean ± std). As to the method:
(§1) Melanoma A375 PF11 line was derived from A375 (ATCC). 12R5-1, 12R5-3, 12R8-1, 12R8-3, 16R5-2, 16R6-3 and 16R6-4 are single cell clones derived from mixed populations of A375 PF11 cells that were selected to grow in Compound A to concentrations of 1200 and 1600 nM. All lines were cultured in RPMI 1640 medium containing 10% fetal bovine serum (FBS).
(§2) All cells were cultured for a minimum of 72 hours prior to cell plating. Cells were assayed in a 96-well tissue culture plate (NUNC 136102) of RPMI medium containing 10% FBS for all cells at 1,000 cells per well. Approximately 24 hours after plating, cells were exposed to ten, three-fold serial dilutions of compound or the combination of the two agents at a constant molar to molar ratio of 1:10 Compound A to Compound B in RPMI media containing 10% FBS. Cells were incubated in the presence of compounds for 3 days. ATP levels were determined by adding Cell Titer Glo® (Promega) according to the manufacturer's protocol. Briefly, Cell Titer Glo® was added each plate, incubated for 30 minutes then luminescent signal was read on the SpectraMax L plate reader with a 0.5 sec integration time.
(§3) Inhibition of cell growth was estimated after treatment with compound or combination of compounds for three days and comparing the signal to cells treated with vehicle (DMSO). Cell growth was calculated relative to vehicle (DMSO) treated control wells. Concentration of compound that inhibits 50% of control cell growth (IC50) was interpolated when y=50% of the vehicle control using nonlinear regression with the equation, y=(A+(B−A)/(1+(C/x)̂D))), where A is the minimum response (ymin), B is the maximum response (ymax), C is the inflection point of the curve (EC50) and D is the Hill coefficient.
(§4) Combination effects on potency were evaluated using Combination Index (CI) which was calculated with the back-interpolated IC50 values and the mutually non-exclusive equation derived by Chou and Talalay (Chou T C, Talalay P. Quantitative analysis of dose-effect relationships: the combined effects of multiple drugs or enzyme inhibitors. Adv Enzyme Regul 1984; 22:27-55.) A detailed description of the CI is found above. In general, a CI value <0.9, between 0.9 and 1.1, or >1.1 indicates synergy, additivity and antagonism, respectively. In general, the smaller the CI number, the greater is the strength of synergy.
(§5) The combination effects on the response scale were quantified by Excess Over Highest Single Agent (EOHSA) based on the concept of nonlinear blending as described in detail by Peterson and Novick (2007) and Peterson (2010) [Peterson J J, Novick S J. J Recept Signal Transduct Res 2007; 27(2-3):125-46, Peterson J. Frontiers of Bioscience S2, 483-503. 2010] EOHSA values are defined as increases in improvement (here, in ‘percentage points’ (ppts) difference) produced by the combination over the best single agent at its component dose level for the combination. Details on the calculation of EOHSA can be found above. For single agent and combination treatments, cells were exposed to compounds at a fixed-dose-ratio, and dose response curves were fit to the experimental data and analyzed using regression models. At specified total dose levels of IC50 along the dose response curve, the dose combination (corresponding to IC50) was determined for making EOHSA statistical inferences. More specifically, for a combination drug experiment involving drug 1 at dose d1 and drug 2 at dose d2, (i.e., total dose equals d1+d2) is said to have a positive EOHSA if the mean response at the combination is better than the mean response to drug 1 at dose d1 […] drug 2 at dose d2.

The test system of test [2] is 12R8-1. The settings on record: Homo sapiens, 72 h, 12R8-1 (Compound A resistant clone), read-out: IC50, Single Agent (mean ± std). As to the method:
as §1, §2, §3, §4, §5

Test [3] deals with 12R5-3. The settings on record: Homo sapiens, 72 h, 12R5-3 (Compound A resistant clone), read-out: IC50, Single Agent (mean ± std). The protocol:
as §1, §2, §3, §4, §5

In test [4] the test system is 16R6-3. The settings on record: Homo sapiens, 72 h, 16R6-3 (Compound A resistant clone), read-out: IC50, Single Agent (mean ± std). As to the method:
as §1, §2, §3, §4, §5

The subject of test [5] is 16R5-2. The settings on record: Homo sapiens, 72 h, 16R5-2 (Compound A resistant clone), read-out: IC50, Single Agent (mean ± std). The protocol: as §1, §2, §3, §4, §5
Test [6] relates to A375PF11. The settings on record: Homo sapiens, A375P-F11, 72 h, A375PF11 (BRAF_V600E), read-out: IC50, Single Agent (mean ± std). As to the method:
as §1, §2, §3, §4, §5

The test system of test [7] is 16R6-4. The settings on record: Homo sapiens, 72 h, 16R6-4 (Compound A resistant clone), read-out: IC50, Single Agent (mean ± std). As to the method:
as §1, §2, §3, §4, §5

The test system of test [8] is 12R8-3. The settings on record: Homo sapiens, 72 h, 12R8-3 (Compound A resistant clone), read-out: IC50, Single Agent (mean ± std). As to the method: as §1, §2, §3, §4, §5

Take `CC(C)(C)c1nc(-c2cccc(NS(=O)(=O)c3c(F)cccc3F)c2F)c(-c2ccnc(N)n2)s1` [Compound A, N-{3-[5-(2-amino-4-pyrimidinyl)-2-(1,1-dimethylethyl)-1,3-thiazol-4-yl]-2-fluorophenyl}-2,6-difluorobenzenesulfonamide]: the 50% inhibitory concentration (IC50) is more than 10000 nM in test [1]; more than 10000 nM in test [2]; more than 10000 nM in test [3]; more than 10000 nM in test [4]; more than 10000 nM in test [5]; 59 nM in test [6]. The IC50 in test [7] and in test [8] was more than 10000 nM throughout.

For `COc1ncc(-c2ccc3nccc(-c4ccnnc4)c3c2)cc1NS(=O)(=O)c1ccc(F)cc1F` [Compound B, 2,4-difluoro-N-{2-(methyloxy)-5-[4-(4-pyridazinyl)-6-quinolinyl]-3-pyridinyl}benzenesulfonamide], the half-inhibitory concentration (IC50) in test [1] amounted to 212 ± 38 nM; in test [2] it was 103 ± 16 nM; in test [3] it was 88 ± 2 nM; in test [4], 80 ± 17 nM; in test [5], 41 ± 18 nM; in test [6], 48 nM. Moreover, the half-maximal inhibitory concentration (IC50) in test [7] is 61 ± 10 nM; in test [8], 129 ± 24 nM.
